Assay results taken from patent publication US9079876B2, “Imidazole derivatives and preparation method and use thereof” (Beijing Orbiepharm Co., Ltd., priority 2010, dated 2015).

How the values were obtained:
[1] = Pharmacokinetic study, intravenous, rats; assay type: in vivo; conditions: male SD rats, IV 2 mg/kg
Procedure: Cimicoxib (cimicoxib) was IV administrated to male SD rats in vivo [2 mg/kg, 2 mg/ml, menstruum: DMSO/PEG 400/30% HP-b-CD ([…])], T1/2 was 3.20 h. The half-life of compound 1 was longer than cimicoxib.

[2] = tested on: rat paw swelling induced by carrageenan; test: Rat paw swelling induced by carrageenan (inflammation model); assay type: in vivo, Wistar rats
Procedure: In vivo test: observation of the effect of compound 1 on rat paw swelling induced by carrageenan (inflammation model evaluation)
50 rats were randomized into 5 groups, with 10 animals in each group.
The total volume prepared for each dose group was determined based on the actual weight of the animals. A corresponding volume of purified water was taken, and was added with a sample of the test compounds or of the positive control, to allow homogenous dispersion. Sodium carboxymethyl cellulose was subsequently added, to make a homogenous suspension without obvious agglomerates.
Methods: 50 Wistar rats ([…], 167-199 g) were used in the study, with 25 males and 25 females. They were randomized into 5 groups, i.e. model group, positive control group, compound 1: low, middle and high dose groups. […] 1 hour after intragastric administration, 0.1 ml 1% carrageenan was intradermally injected in the right hind plantar paw to induce inflammation. After induction of inflammation, paw plantar volume and paw thickness were measured every another hour, consecutively for six times. Paw swelling rate (%) and inhibition rate (%) were calculated.
Assay methods: volume of the rat right paw was determined using UGO Basile plethysmograph, and the liquid level was kept constant for in the same animal in each measurement; thickness of the right hind paw were measured at the depiction line in the central paw with a digital vernier caliper.
The group mean and standard deviation of paw swelling rate in each group of animals were calculated, and then the following statistical analysis was performed. The test level was 0.05, and both statistical significance and biological significance were considered in the result analysis.
Levene's Test was used for homogeneity of variance test. Single-factor analysis of variance (ANOVA) was used for statistical analysis, if no statistical significance (P>0.05) was found. Dunnett's test (parametric method) analysis was used for multiple comparison analysis, if ANOVA found statistical significance (P≦0.05).
If there was heterogeneity of variance (P≦0.05), then the Kruskal-Wallis test was used. If the test result of Kruskal-Wallis test was statistically significant (P<0.05), then Dunnett's test (non-parametric method) was used for multiple comparison analysis.

[3] = 7 mg/kg intragastric, 1 h after inflammation
[4] = 7 mg/kg intragastric, 2 h after inflammation
[5] = 7 mg/kg intragastric, 3 h after inflammation
[6] = 7 mg/kg intragastric, 4 h after inflammation
[7] = 7 mg/kg intragastric, 5 h after inflammation
[8] = 7 mg/kg intragastric, 6 h after inflammation
[9] = 10 mg/kg intragastric, 1 h after inflammation
[10] = 10 mg/kg intragastric, 2 h after inflammation
[11] = 10 mg/kg intragastric, 3 h after inflammation
[12] = 10 mg/kg intragastric, 4 h after inflammation
[13] = 10 mg/kg intragastric, 5 h after inflammation
[14] = 10 mg/kg intragastric, 6 h after inflammation
[15] = 14 mg/kg intragastric, 1 h after inflammation
[16] = 14 mg/kg intragastric, 2 h after inflammation
[17] = 14 mg/kg intragastric, 3 h after inflammation
[18] = 14 mg/kg intragastric, 4 h after inflammation
[19] = 14 mg/kg intragastric, 5 h after inflammation
[20] = 14 mg/kg intragastric, 6 h after inflammation

- t1/2 [1]: 5.37 ± 0.51 h
- AUC(0-t) ([1]; rat, in vivo): 11400 ± 949 ng·h/mL
- C0 ([1]; rat, in vivo): 1700 ± 259 ng/mL
- clearance ([1]; rat, in vivo): 2.83 ± 0.27 mL/min/kg
- half-life ([1]; rat, in vivo, 2 mg/ml, DMSO/PEG 400/30% HP-b-CD): 322 min
- Vd ([1]; rat, in vivo, read-out: Vss): 1.16 ± 0.02 L/kg
SMILES: CS(=O)(=O)c1ccc(-n2cnc(Cl)c2-c2ccccc2)nc1 [Compound 1, 2-(4-chloro-5-phenyl-1H-imidazol-1-yl)-5-(methylsulfonyl)pyridine]
- inhibition rate of plantar paw thickness swelling [2, 3]: 27.44%
- inhibition rate of plantar paw volume swelling [2, 3]: 0.00%
- plantar paw thickness swelling rate [2, 3]: 7.97 ± 3.84%
- plantar paw volume swelling rate [2, 3]: 11.62 ± 4.73%
- inhibition rate of plantar paw thickness swelling [2, 4]: 63.92%
- inhibition rate of plantar paw volume swelling [2, 4]: 27.91%
- plantar paw thickness swelling rate [2, 4]: 5.72 ± 4.27 %
- plantar paw volume swelling rate [2, 4]: 12.62 ± 4.15%
- inhibition rate of plantar paw thickness swelling [2, 5]: 76.74%
- inhibition rate of plantar paw volume swelling [2, 5]: 43.96%
- plantar paw thickness swelling rate [2, 5]: 4.01 ± 3.33 %
- plantar paw volume swelling rate [2, 5]: 11.87 ± 3.62 %
- inhibition rate of plantar paw thickness swelling [2, 6]: 77.45%
- inhibition rate of plantar paw volume swelling [2, 6]: 58.90%
- plantar paw thickness swelling rate [2, 6]: 4.29 ± 4.47 %
- plantar paw volume swelling rate [2, 6]: 11.14 ± 3.73 %
- inhibition rate of plantar paw thickness swelling [2, 7]: 85.81%
- inhibition rate of plantar paw volume swelling [2, 7]: 55.32%
- plantar paw thickness swelling rate [2, 7]: 2.68 ± 3.82 %
- plantar paw volume swelling rate [2, 7]: 12.53 ± 5.03 %
- inhibition rate of plantar paw thickness swelling [2, 8]: 89.21%
- inhibition rate of plantar paw volume swelling [2, 8]: 57.59%
- plantar paw thickness swelling rate [2, 8]: 1.67 ± 4.28 %
- plantar paw volume swelling rate [2, 8]: 11.75 ± 4.71 %
- inhibition rate of plantar paw thickness swelling [2, 9]: 0.00%
- inhibition rate of plantar paw volume swelling [2, 9]: 0.00%
- plantar paw thickness swelling rate [2, 9]: 12.91 ± 4.89%
- plantar paw volume swelling rate [2, 9]: 12.48 ± 5.01%
- inhibition rate of plantar paw thickness swelling [2, 10]: 50.35%
- inhibition rate of plantar paw volume swelling [2, 10]: 6.86%
- plantar paw thickness swelling rate [2, 10]: 7.87 ± 3.91 %
- plantar paw volume swelling rate [2, 10]: 16.30 ± 5.55%
- inhibition rate of plantar paw thickness swelling [2, 11]: 60.54%
- inhibition rate of plantar paw volume swelling [2, 11]: 24.73%
- plantar paw thickness swelling rate [2, 11]: 6.80 ± 3.68 %
- plantar paw volume swelling rate [2, 11]: 15.95 ± 5.92%
- inhibition rate of plantar paw thickness swelling [2, 12]: 69.63%
- inhibition rate of plantar paw volume swelling [2, 12]: 45.15%
- plantar paw thickness swelling rate [2, 12]: 5.78 ± 3.69 %
- plantar paw volume swelling rate [2, 12]: 14.87 ± 5.07 %
- inhibition rate of plantar paw thickness swelling [2, 13]: 71.80%
- inhibition rate of plantar paw volume swelling [2, 13]: 44.78%
- plantar paw thickness swelling rate [2, 13]: 5.32 ± 3.99 %
- plantar paw volume swelling rate [2, 13]: 15.48 ± 5.58 %
- inhibition rate of plantar paw thickness swelling [2, 14]: 66.63%
- inhibition rate of plantar paw volume swelling [2, 14]: 43.68%
- plantar paw thickness swelling rate [2, 14]: 5.16 ± 3.94 %
- plantar paw volume swelling rate [2, 14]: 15.61 ± 7.62 %
- inhibition rate of plantar paw thickness swelling [2, 15]: 33.98%
- inhibition rate of plantar paw volume swelling [2, 15]: 0.77%
- plantar paw thickness swelling rate [2, 15]: 7.25 ± 4.10%
- plantar paw volume swelling rate [2, 15]: 10.82 ± 4.28%
- inhibition rate of plantar paw thickness swelling [2, 16]: 67.67%
- inhibition rate of plantar paw volume swelling [2, 16]: 30.59%
- plantar paw thickness swelling rate [2, 16]: 5.12 ± 3.74 %
- plantar paw volume swelling rate [2, 16]: 12.15 ± 5.20%
- inhibition rate of plantar paw thickness swelling [2, 17]: 77.77%
- inhibition rate of plantar paw volume swelling [2, 17]: 42.44%
- plantar paw thickness swelling rate [2, 17]: 3.83 ± 2.59 %
- plantar paw volume swelling rate [2, 17]: 12.20 ± 5.19 %
- inhibition rate of plantar paw thickness swelling [2, 18]: 79.53%
- inhibition rate of plantar paw volume swelling [2, 18]: 48.46%
- plantar paw thickness swelling rate [2, 18]: 3.90 ± 3.54 %
- plantar paw volume swelling rate [2, 18]: 13.97 ± 6.25 %
- inhibition rate of plantar paw thickness swelling [2, 19]: 86.47%
- inhibition rate of plantar paw volume swelling [2, 19]: 53.52%
- plantar paw thickness swelling rate [2, 19]: 2.55 ± 2.95 %
- plantar paw volume swelling rate [2, 19]: 13.03 ± 4.88 %
- inhibition rate of plantar paw thickness swelling [2, 20]: 84.04%
- inhibition rate of plantar paw volume swelling [2, 20]: 59.93%
- plantar paw thickness swelling rate [2, 20]: 2.47 ± 2.70 %
- plantar paw volume swelling rate [2, 20]: 11.10 ± 4.42 %
- inhibition of the paw swelling rate ([2]; low, middle and high dose groups (7, 10, 14 mg/kg), 4 hours after inflammation): above 30%
